For one test, the target named is T1, human σ1 receptor (Homo sapiens, UniProt Q99720).
T1 construct: expressed in transfected cells; host or cells: HEK-293
The test is described as follows: Human σ1 receptor radioligand assay ([3H](+)-pentazocine). The format is binding. The method in brief:
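Binding used [3H](+)-pentazocine, 120 min at 37° C, with non-specific binding defined by 10 μM haloperidol. Bound radioligand was collected by filtration, washed with ice-cold 10 mM Tris-HCl pH 7.4 and counted by scintillation.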

Another test concerns the target T2, human σ2/TMEM97 receptor (Homo sapiens, UniProt Q5BJF2).
T2 construct: expressed in transfected cells; host or cells: HEK-293
Put plainly: Binding assay to human σ2/TMEM97 receptor ([3H]-DTG). The following applies: transfected HEK-293 membranes, 10 nM [3H]-DTG, 25° C., 120 minutes; read-out: Binding σ-[…] (binding to σ2-receptor expressed as Ki). A digest of the protocol: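 Membranes from transfected HEK-293 cells incubated with 10 nM [3H]-DTG in 50 mM Tris-HCl pH 8.0, 120 min at 25 °C; non-specific binding defined with 10 μM haloperidol. Bound radioactivity counted after filtration; compounds tested as % inhibition at 1 or 10 μM or at five concentrations for Ki.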

Where [1] appears, read: transfected HEK-293 membranes, 5 nM [3H](+)-pentazocine, 37° C., 120 minutes, read-out: Binding σ-[…] (binding to σ1-receptor expressed as Ki).

SMILES strings stand for the structures. Where a name gives a salt, the structure may show the parent alone. Read-outs that look alike come from different tables or passages of the source.

T2 sequence (Q5BJF2 whole entry): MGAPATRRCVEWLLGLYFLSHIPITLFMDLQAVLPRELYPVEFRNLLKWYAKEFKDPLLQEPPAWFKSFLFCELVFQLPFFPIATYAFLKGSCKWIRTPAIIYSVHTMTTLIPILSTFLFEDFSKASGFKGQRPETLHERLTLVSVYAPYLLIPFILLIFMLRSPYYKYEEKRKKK
T1 sequence (Q99720 whole entry): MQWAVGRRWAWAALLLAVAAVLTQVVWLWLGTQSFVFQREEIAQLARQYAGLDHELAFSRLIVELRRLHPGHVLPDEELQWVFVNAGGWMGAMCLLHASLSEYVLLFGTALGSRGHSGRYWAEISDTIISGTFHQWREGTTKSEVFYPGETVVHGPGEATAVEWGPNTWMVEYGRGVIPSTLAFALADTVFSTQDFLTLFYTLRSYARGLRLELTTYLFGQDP

Regarding `Cc1ccc2c(n1)C(C)(C)CN2C(=O)N1CCC2(CCN(CCC3CCOCC3)CC2)C1` [Example 108, (8-(2-(tetrahydro-2H-pyran-4-yl)ethyl)-2,8-diazaspiro[4.5]decan-2-yl)(3,3,5-trimethyl-2,3-dihydro-1H-pyrrolo[3,2-t]pyridin-1-yl)methanone], the values for the Ki at human σ1 receptor (setting [1]) and on human σ2/TMEM97 receptor were > 1000 nM and < 100 nM, respectively.

For `CC(C)(C)CCN1CCC(CNC(=O)N2CC(C)(C)c3ncccc32)CC1` [Example 109, N-((1-(3,3-dimethylbutyl)piperidin-4-yl)methyl)-3,3-dimethyl-2,3-dihydro-1H-pyrrolo[3,2-b]pyridine-1-carboxamide], the Ki (commonly the dissociation constant of the complex between target and ligand, obtained from inhibition or displacement) at human σ1 receptor (setting [1]) was 100 to 500 nM; on human σ2/TMEM97 receptor it was < 100 nM.

Regarding `Cc1ccc2c(n1)C(C)(C)CN2C(=O)N1CCC2(CCN(C3CCOCC3)CC2)C1` [Example 110, (8-(tetrahydro-2H-pyran-4-yl)-2,8-diazaspiro[4.5]decan-2-yl)(3,3,5-trimethyl-2,3-dihydro-1H-pyrrolo[3,2-b]pyridin-1-yl)methanone], the Ki on human σ1 receptor (setting [1]) is > 1000 nM; on human σ2/TMEM97 receptor, < 100 nM.

As for `CN[C@H](CNC(=O)N1CC(C)(C)c2nc(C)ccc21)c1ccccc1` [Example 111, (S)-3,3,5-trimethyl-N-(2-(methylamino)-2-phenylethyl)-2,3-dihydro-1H-pyrrolo[3,2-b]pyridine-1-carboxamide], the Ki was 100 to 500 nM on human σ1 receptor (setting [1]) and > 1000 nM at human σ2/TMEM97 receptor.

Take `CN[C@@H](CNC(=O)N1CC(C)(C)c2nc(C)ccc21)c1ccccc1` [Example 112, (R)-3,3,5-trimethyl-N-(2-(methylamino)-2-phenylethyl)-2,3-dihydro-1H-pyrrolo[3,2-b]pyridine-1-carboxamide]: the inhibition constant (Ki) on human σ1 receptor (setting [1]) is 100 to 500 nM; on human σ2/TMEM97 receptor, > 1000 nM.

For `CCN[C@@H](CNC(=O)N1CC(C)(C)c2nc(C)ccc21)c1ccccc1` [Example 113, (R)—N-(2-(ethylamino)-2-phenylethyl)-3,3,5-trimethyl-2,3-dihydro-1H-pyrrolo[3,2-b]pyridine-1-carboxamide], the Ki at human σ1 receptor was 100 to 500 nM; at human σ2/TMEM97 receptor it was > 1000 nM.

Consider `Cc1ccc2c(n1)C(C)(C)CN2C(=O)N1CCC(N(C)Cc2ccc(F)cc2)CC1` [Example 114, (4-((4-fluorobenzyl)(methyl)amino)piperidin-1-yl)(3,3,5-trimethyl-2,3-dihydro-1H-pyrrolo[3,2-b]pyridin-1-yl)methanone], for which the figures for the inhibition constant Ki on human σ1 receptor (setting [1]) and at human σ2/TMEM97 receptor were 100 to 500 nM and < 100 nM, respectively.

As for `Cc1ccc2c(n1)C(C)(C)CN2C(=O)N1CCC(NCc2ccccc2)CC1` [Example 115, (4-(benzylamino)piperidin-1-yl)(3,3,5-trimethyl-2,3-dihydro-1H-pyrrolo[3,2-b]pyridin-1-yl)methanone], the Ki at human σ1 receptor (setting [1]) was > 1000 nM; at human σ2/TMEM97 receptor, 100 to 500 nM.

Regarding `Cc1ccc2c(n1)C(C)(C)CN2C(=O)N1CCC(N(C)Cc2cccc(F)c2)CC1` [Example 116, (4-((3-fluorobenzyl)(methyl)amino)piperidin-1-yl)(3,3,5-trimethyl-2,3-dihydro-1H-pyrrolo[3,2-b]pyridin-1-yl)methanone], the values for the inhibition constant Ki on human σ1 receptor (setting [1]) and on human σ2/TMEM97 receptor were 500 to 1000 nM and < 100 nM, respectively.

As for `Cc1ccc2c(n1)C(C)(C)CN2C(=O)N1CCC(N(C)Cc2ccc(C#N)cc2)CC1` [Example 117, 4-((methyl(1-(3,3,5-trimethyl-2,3-dihydro-1H-pyrrolo[3,2-t]pyridine-1-carbonyl)piperidin-4-yl)amino)methyl)benzonitrile], the inhibition constant Ki at human σ1 receptor (setting [1]) is 100 to 500 nM; on human σ2/TMEM97 receptor, < 100 nM.

In the case of `Cc1ccc2c(n1)C(C)(C)CN2C(=O)N1CCC(N(C)Cc2cccc(C#N)c2)CC1` [Example 118, 3-((methyl(1-(3,3,5-trimethyl-2,3-dihydro-1H-pyrrolo[3,2-t]pyridine-1-carbonyl)piperidin-4-yl)amino)methyl)benzonitrile], the inhibition constant Ki on human σ1 receptor (setting [1]) was > 1000 nM; on human σ2/TMEM97 receptor, < 100 nM.

In the case of `Cc1ccc2c(n1)C(C)(C)CN2C(=O)N1CCC(N(C)CC(C)C)CC1` [Example 119, (4-(isobutyl(methyl)amino)piperidin-1-yl)(3,3,5-trimethyl-2,3-dihydro-1H-pyrrolo[3,2-b]pyridin-1-yl)methanone], the inhibition constant Ki at human σ1 receptor (setting [1]) and at human σ2/TMEM97 receptor was 100 to 500 nM throughout.

In the case of `Cc1ccc2c(n1)C(C)(C)CN2C(=O)N1CCCCC(NCCC(C)C)C1` (centres unmarked) [Example 120, (3-(Isopentylamino)azepan-1-yl)(3,3,5-trimethyl-2,3-dihydro-1H-pyrrolo[3,2-t]pyridin-1-yl)methanone], the Ki on human σ1 receptor (setting [1]) is 500 to 1000 nM; on human σ2/TMEM97 receptor, < 100 nM.

Turning to `CC(C)CCN[C@H]1CCCCN(C(=O)N2CCc3ncccc32)C1` [Example 121, (S)-(2,3-dihydro-1H-pyrrolo[3,2-b]pyridin-1-yl)(3-(isopentylamino)azepan-1-yl)methanone], the Ki at human σ1 receptor (setting [1]) and at human σ2/TMEM97 receptor was 100 to 500 nM throughout.

Consider `CC(C)CCN(C)[C@H]1CCCCN(C(=O)N2CCc3ncccc32)C1` [Example 122, (S)-(2,3-dihydro-1H-pyrrolo[3,2-b]pyridin-1-yl)(3-(isopentyl(methyl)amino)azepan-1-yl)methanone], for which the values for the Ki at human σ1 receptor (setting [1]) and on human σ2/TMEM97 receptor were < 100 nM and 100 to 500 nM, respectively.

Regarding `Cc1ccc2c(n1)C(C)(C)CN2C(=O)C1CCN(Cc2ccccc2)CC1` [Example 123, (1-benzylpiperidin-4-yl)(3,3,5-trimethyl-2,3-dihydro-1H-pyrrolo[3,2-b]pyridin-1-yl)methanone], the Ki is < 100 nM at human σ1 receptor (setting [1]) and 500 to 1000 nM on human σ2/TMEM97 receptor.

In the case of `Cc1ccc2c(n1)C(C)(C)CN2C(=O)[C@@H]1CN(Cc2ccccc2)C[C@H]1C` [Example 124, ((3S,4S)-1-benzyl-4-methylpyrrolidin-3-yl)(3,3,5-trimethyl-2,3-dihydro-1H-pyrrolo[3,2-b]pyridin-1-yl)methanone], the Ki was < 100 nM on human σ1 receptor (setting [1]) and > 1000 nM at human σ2/TMEM97 receptor.

For `Cc1ccc2c(n1)C(C)(C)CN2C(=O)[C@H]1CN(Cc2ccccc2)C[C@@H]1C` [Example 125, ((3R,4R)-1-benzyl-4-methylpyrrolidin-3-yl)(3,3,5-trimethyl-2,3-dihydro-1H-pyrrolo[3,2-b]pyridin-1-yl)methanone], the Ki on human σ1 receptor (setting [1]) was < 100 nM; at human σ2/TMEM97 receptor, 100 to 500 nM.

In the case of `Cc1ccc2c(n1)C(C)(C)CN2C(=O)[C@H]1CC[C@@H](N(C)Cc2ccccc2)CC1` [Example 126, ((1s,4s)-4-(benzyl(methyl)amino)cyclohexyl)(3,3,5-trimethyl-2,3-dihydro-1H-pyrrolo[3,2-b]pyridin-1-yl)methanone], the inhibition constant (Ki) on human σ1 receptor (setting [1]) and at human σ2/TMEM97 receptor was < 100 nM each time.

Take `CN(Cc1ccccc1)[C@H]1CC[C@@H](C(=O)N2CC(C)(C)c3ncccc32)CC1` [Example 127, ((1s,4s)-4-(benzyl(methyl)amino)cyclohexyl)(3,3-dimethyl-2,3-dihydro-1H-pyrrolo[3,2-b]pyridin-1-yl)methanone]: the Ki on human σ1 receptor (setting [1]) and on human σ2/TMEM97 receptor was < 100 nM each time.

Consider `CC1(C)CN(C(=O)[C@H]2CC[C@H](NCc3ccccc3)CC2)c2cccnc21` [Example 128, ((1r,4r)-4-(benzylamino)cyclohexyl)(3,3-dimethyl-2,3-dihydro-1H-pyrrolo[3,2-b]pyridin-1-yl)methanone dihydrochloride], for which the Ki is < 100 nM at human σ1 receptor (setting [1]) and 100 to 500 nM on human σ2/TMEM97 receptor.

Consider `Cc1ccc2c(n1)C(C)(C)CN2C(=O)CC1CCN(Cc2ccccc2)CC1` [Example 130, 2-(1-benzylpiperidin-4-yl)-1-(3,3,5-trimethyl-2,3-dihydro-1H-pyrrolo[3,2-b]pyridin-1-yl)ethanone], for which the Ki on human σ1 receptor (setting [1]) was < 100 nM; on human σ2/TMEM97 receptor it was 100 to 500 nM.

For the origin of these results see US20240174671A1, “New 2,3-Dihydro-1H-pyrrolo[3,2-b]pyridine Derivatives as Sigma Ligands” (ACONDICIONAMIENTO TARRASENSE, priority 2021, published 2024).
